The subject of one data set is HBV. Kind of data set: anti HBV activity, HepG2.117 cell line, intracellular HBV DNA by realtime PCR. Conditions: HepG2.117 cell line (Tet-off), 3 days of treatment, intracellular HBV DNA quantified by realtime PCR, read-out: HBV-AVE-HepG2.117 EC50. Type of data set: cell-based. Put shortly: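 HepG2.117 cells, a Tet-off line that replicates HBV without doxycycline, were induced and then treated in duplicate with serially diluted compound. After 3 days, intracellular HBV DNA was quantified by real-time PCR with an HBV-specific primer set and probe.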

A short description of data set [1]: Cytotoxicity in HepG2 cells, Resazurin assay. To be noted: human, HepG2 cells, TOX-HepG2-4 d CC50 (μM), HepG2 cells incubated for 4 days, viability by Resazurin assay. Background: Resazurin is reduced to fluorescent resorufin, in cell work by metabolically active cells.
Where [2] appears, read: Hepatitis B virus, HepG2.117, 72 h.

Where two headings read alike, the source gives them in different places.

In the case of `C[C@H]1C=Cc2c(cn(C)c2C(=O)Nc2ccnc(C(F)(F)F)c2)S(=O)(=O)N1` (single isomer, unassigned) [Compound 42, (3*S)-3,7-dimethyl-1,1-dioxo-N-[2-(trifluoromethyl)-4-pyridyl]-2,3-dihydropyrrolo[3,4-f]thiazepine-6-carboxamide], the EC50 (commonly the concentration at which the effect is half-maximal) in the data set on HBV (setting [2]) is 81 nM. Besides, in data set [1], the CC50 (in general, the concentration that lowers cell viability or growth by half) at 4 days is more than 25 µM.
Turning to `Cn1cc2c(c1C(=O)Nc1ccc(F)c(C(F)F)c1)CCC(C(C)(C)O)NS2(=O)=O` (single isomer, unassigned) [Compound 150a, N-[3-(difluoromethyl)-4-fluoro-phenyl]-3-(1-hydroxy-1-methyl-ethyl)-7-methyl-1,1-dioxo-2,3,4,5-tetrahydropyrrolo[3,4-f]thiazepine-6-carboxamide], the EC50 in the data set with HBV was more than 125 nM. Also, in data set [1], the CC50 at 4 days is more than 25 µM.
Turning to `Cc1cc(CC2(C)COc3c(cn(C)c3C(=O)Nc3ccnc(Cl)c3)S(=O)(=O)N2)no1` (single isomer, unassigned) [Compound 213a, N-(2-chloro-4-pyridyl)-3,7-dimethyl-3-[(5-methylisoxazol-3-yl)methyl]-1,1-dioxo-2,4-dihydropyrrolo[3,4-b][1,4,5]oxathiazepine-6-carboxamide], the EC50 with HBV came out at 48 nM. The compound also had a CC50 at 4 days in data set [1] of more than 25 µM.
Take `C[C@H](O)[C@H]1CCc2c(cn(C)c2C(=O)Nc2ccc(F)c(C#N)c2F)S(=O)(=O)N1` [Compound 159, (3R)—N-(3-cyano-2,4-difluoro-phenyl)-3-[(1S)-1-hydroxyethyl]-7-methyl-1,1-dioxo-2,3,4,5-tetrahydropyrrolo[3,4-f]thiazepine-6-carboxamide]: the concentration giving a half-maximal response (EC50) in the data set on HBV (setting [2]) came out at 14 nM. The CC50 at 4 days in data set [1] is more than 25 µM.
As to `Cn1cc2c(c1C(=O)Nc1ccnc(C(F)(F)F)c1)CCC(C(F)(F)F)NS2(=O)=O` (single isomer, unassigned) [Compound 59a, 7-methyl-1,1-dioxo-3-(trifluoromethyl)-N-[2-(trifluoromethyl)-4-pyridyl]-2,3,4,5-tetrahydropyrrolo[3,4-f]thiazepine-6-carboxamide], the EC50 in the data set on HBV is more than 500 nM. This compound also gave a CC50 at 4 days in data set [1] of more than 25 µM.
For the compound `Cn1cc2c(c1C(=O)Nc1cc(F)c(F)c(F)c1)CCC1(COC1)NS2(=O)=O` [Compound 136, 7-methyl-1,1-dioxo-N-(3,4,5-trifluorophenyl)spiro[4,5-dihydro-2H-pyrrolo[3,4-f]thiazepine-3,3′-oxetane]-6-carboxamide], the EC50 with HBV (setting [2]) is 16 nM. The CC50 at 4 days in data set [1] was more than 25 µM.
The like results for `CC1C=Cc2c(cn(C)c2C(=O)Nc2ccc(F)c(F)c2)S(=O)(=O)N1C` (stereo not shown) [Compound 18, N-(3,4-difluorophenyl)-2,3,7-trimethyl-1,1-dioxo-3H-pyrrolo-[3,4-f]thiazepine-6-carboxamide] were, in that order, 710 nM and more than 25 µM.
The like results for `C[C@@H]1Oc2c(cn(C)c2C(=O)Nc2ccc(F)c(F)c2)S(=O)(=O)N[C@@H]1C` [compound 230] were, in that order, more than 500 nM and more than 25 µM.
Regarding `Cn1cc2c(c1C(=O)Nc1cc(F)c(F)c(F)c1)C=CC1(COC1)NS2(=O)=O` [Compound 143, 7-methyl-1,1-dioxo-N-(3,4,5-trifluorophenyl)spiro[2H-pyrrolo[3,4-f]thiazepine-3,3′-oxetane]-6-carboxamide], the EC50 in the data set with HBV (setting [2]) is 24 nM. Besides, in data set [1], the CC50 at 4 days is more than 25 µM.
For the compound `Cn1cc2c(c1C(=O)Nc1ccnc(Cl)c1)OCC(C)(CO)NS2(=O)=O` (single isomer, unassigned) [Compound 204a, N-(2-chloro-4-pyridyl)-3-(hydroxymethyl)-3,7-dimethyl-1,1-dioxo-2,4-dihydropyrrolo[3,4-b][1,4,5]oxathiazepine-6-carboxamide], the EC50 with HBV (setting [2]) was more than 125 nM. The CC50 at 4 days in data set [1] was more than 25 µM.
Take `Cn1cc2c(c1C(=O)Nc1ccc(F)c(F)c1)OCC1(CCN(Cc3ccccc3)C1)NS2(=O)=O` (stereo not shown) [Compound 216, 1′-benzyl-N-(3,4-difluorophenyl)-7-methyl-1,1-dioxo-spiro[2,4-dihydropyrrolo[3,4-b][1,4,5]oxathiazepine-3,3′-pyrrolidine]-6-carboxamide]: in the data set on HBV (setting [2]), the EC50 turned out to be 34 nM. Moreover, in data set [1], the cytotoxic concentration (CC50) at 4 days is more than 25 µM.
Turning to `CC(C)C1CCc2c(cn(C)c2C(=O)Nc2ccc(F)c(C(F)F)c2)S(=O)(=O)N1` (stereo not shown) [Compound 86, N-[3-(difluoromethyl)-4-fluoro-phenyl]-3-isopropyl-7-methyl-1,1-dioxo-2,3,4,5-tetrahydropyrrolo[3,4-f]thiazepine-6-carboxamide], the EC50 in the data set on HBV (setting [2]) was 5 nM. The CC50 at 4 days in data set [1] is more than 25 µM.
Take `CC1CCC/C=C\Cc2c(cn(C)c2C(=O)Nc2ccc(F)c(F)c2)S(=O)(=O)N1` (stereo not shown) [Compound 2a, 8Z—N-(3,4-difluorophenyl)-4,13-dimethyl-2,2-dioxo-2λ^6-thia-3,13-diazabicyclo[9.3.0]tetradeca-1(14),8,11-triene-12-carboxamide]: the EC50 with HBV (setting [2]) was found to be 280 nM. In data set [1], this compound returned a CC50 at 4 days of more than 25 µM.
Consider `Cn1cc2c(c1C(=O)Nc1ccc(F)c(F)c1)OCC(C(=O)O)NS2(=O)=O` (stereo not shown) [compound 242], for which, in the data set with HBV (setting [2]), the concentration giving a half-maximal response (EC50) was more than 130 nM. In data set [1], this compound displayed a CC50 at 4 days of more than 25 µM.
For `Cn1cc2c(c1C(=O)Nc1ccc(F)c(Cl)c1)OCC(C)(Cc1ccc(Cl)nc1)NS2(=O)=O` (stereo not shown) [Compound 198, N-(3-chloro-4-fluoro-phenyl)-3-[(6-chloro-3-pyridyl)methyl]-3,7-dimethyl-1,1-dioxo-2,4-dihydropyrrolo[3,4-b][1,4,5]oxathiazepine-6-carboxamide], the EC50 in the data set on HBV (setting [2]) stood at 11 nM. Moreover, the CC50 at 4 days in data set [1] is more than 25 µM.
`Cn1cc2c(c1C(=O)Nc1ccc(F)c(F)c1)OC[C@@H](C(F)(F)F)NS2(=O)=O` [Compound 61, (3S)—N-(3,4-difluorophenyl)-7-methyl-1,1-dioxo-3-(trifluoromethyl)-3,4-dihydro-2H-pyrrolo[3,4-b][1,4,5]oxathiazepine-6-carboxamide]: the EC50 in the data set with HBV (setting [2]) came out at 74 nM. This compound returned a CC50 at 4 days in data set [1] of more than 25 µM.
For `Cn1cc2c(c1C(=O)Nc1ccc(F)c(F)c1)OC[C@H](C(C)(C)O)NS2(=O)=O` [Compound 93, (3R)—N-(3,4-difluorophenyl)-3-(1-hydroxy-1-methyl-ethyl)-7-methyl-1,1-dioxo-3,4-dihydro-2H-pyrrolo[3,4-b][1,4,5]oxathiazepine-6-carboxamide], the EC50 with HBV (setting [2]) was 12 nM. For the same compound, the CC50 at 4 days in data set [1] is more than 25 µM.
Regarding `Cn1cc2c(c1C(=O)Nc1ccc(F)c(C#N)c1)OCCNS2(=O)=O` [Compound 91, N-(3-cyano-4-fluoro-phenyl)-7-methyl-1,1-dioxo-3,4-dihydro-2H-pyrrolo[3,4-b][1,4,5]oxathiazepine-6-carboxamide], the EC50 in the data set on HBV (setting [2]) is 130 nM. Also, the CC50 at 4 days in data set [1] is more than 25 µM.
In the case of `C[C@H]1CCc2c(cn(C)c2C(=O)Nc2ccc(F)c(Cl)c2F)S(=O)(=O)N1` (single isomer, unassigned) [Compound 54, (3*S)—N-(3-chloro-2,4-difluoro-phenyl)-3,7-dimethyl-1,1-dioxo-2,3,4,5-tetrahydropyrrolo[3,4-f]thiazepine-6-carboxamide], the EC50 in the data set on HBV (setting [2]) is 4 nM. The CC50 at 4 days in data set [1] is more than 25 µM.
For `Cn1cc2c(c1C(=O)Nc1ccc(F)c(F)c1)OCC(C(O)c1ccncc1)NS2(=O)=O` (stereo not shown) [Compound 183, N-(3,4-difluorophenyl)-3-[hydroxy(4-pyridyl)methyl]-7-methyl-1,1-dioxo-3,4-dihydro-2H-pyrrolo[3,4-b][1,4,5]oxathiazepine-6-carboxamide], in that order: 2 nM and more than 25 µM.
